Laboratory results reported in US9127078B2, “Methods and compositions using splicing regulatory proteins involved in tumor suppression” (The Trustees of the University of Pennsylvania, priority 2008, dated 2015).

System: PKC-neg-40B-Luc minigene in 293T cells
Experiment: Luciferase splicing reporter screen of the LOPAC 1280 library
Type: cell-based
Conditions: for Avg Med norm: luciferase fold-increase over the Average Median norm for each plate exclusive of Esrp1 control wells; for Avg Med norm / Avg DMSO Norm: 293T reporter cells, 24 hours; for Avg DMSO Norm: luciferase fold-increase over the Average control (DMSO) norm; for luciferase readings versus background reading: LOPAC screen, result in words
Description: Briefly, compounds from the LOPAC™ library were dissolved in DMSO. 293T cells (which express predominantly FGFR2-IIIc) which stably express the PKC-neg-40B-Luc minigene, as described in Example 1, were incubated with the compounds or with a DMSO control for 24 hours. After the incubation period, BriteLite luciferase readout reagent was added to each well and the plates were read on an Analyst HT multimode plate reader (Molecular Devices). As positive controls, we also added a cDNA encoding the mouse Esrp1 protein to individual wells on each plate.
The results were then ranked in order from largest fold change over background down to the DMSO blank.

Compound: NC(N)=NC(=O)c1nc(Cl)c(N2CCCCCC2)nc1N [5-(N,N-hexamethylene)amiloride]
- Avg Med norm: 1.643 fold
- Avg DMSO Norm: 1.762 fold

Compound: CC(C)NCC(O)c1ccc(O)c(O)c1.Cl (racemic) [(±)-Isoproterenol hydrochloride]
- Avg Med norm: 1.713 fold
- Avg DMSO Norm: 1.663 fold

Compound: COc1cccc(-c2cc(=O)c3ccccc3o2)c1N [PD 98,059, 2-(2-Amino-3-methoxyphenyl)-4H-1-benzopyran-4-one]
- Avg Med norm: 1.783 fold
- Avg DMSO Norm: 1.923 fold

Compound: Cc1ccc(O)c(N=Nc2ccccc2)n1 [SIB 1757, 6-Methyl-2-(phenylazo)-3-pyridinol]
- luciferase readings versus background reading: significantly over the background reading
- Avg Med norm: 2.598 fold
- Avg DMSO Norm: 2.803 fold

Compound: CNCC(O)c1ccc(O)c(O)c1.Cl (racemic) [(±)-Epinephrine hydrochloride]
- Avg Med norm: 1.714 fold
- Avg DMSO Norm: 1.674 fold

Compound: OC[C@H]1O[C@@H](n2cnc3c(Nc4ccccc4)ncnc32)[C@H](O)[C@@H]1O [N6-Phenyladenosine]
- Avg Med norm: 1.942 fold
- Avg DMSO Norm: 2.095 fold

Compound: CNC[C@H](O)c1ccc(O)c(O)c1.O=C(O)C(O)C(O)C(=O)O [(−)-Epinephrine bitartrate]
- Avg Med norm: 1.696 fold
- Avg DMSO Norm: 1.654 fold

Compound: CCCCCCCCCCCCCC(=O)O[C@@H]1[C@@H](C)[C@@]2(O)[C@@H](C=C(CO)C[C@]3(O)C(=O)C(C)=C[C@@H]23)[C@@H]2C(C)(C)[C@]12OC(C)=O [Phorbol 12-myristate 13-acetate]
- luciferase readings versus background reading: significantly over the background reading
- Avg Med norm: 3.825 fold
- Avg DMSO Norm: 4.122 fold

Compound: Clc1ccccc1C(c1ccccc1)(c1ccccc1)n1ccnc1 [Clotrimazole, 1-(o-Chlorotrityl)-imidazole]
- Avg Med norm: 1.671 fold
- Avg DMSO Norm: 1.792 fold

Compound: COc1cccc(NC(=O)/C=C/c2ccc(Cl)cc2)c1 [SB-366791]
- Avg Med norm: 1.665 fold
- Avg DMSO Norm: 1.795 fold

Compound: CCNC(=O)[C@H]1O[C@@H](n2cnc3c(NCc4ccccc4)ncnc32)[C@H](O)[C@@H]1O [N6-Benzyl-5′-N-ethylcarboxamidoadenosine]
- luciferase readings versus background reading: significantly over the background reading
- Avg Med norm: 1.822 fold
- Avg DMSO Norm: 1.953 fold

Compound: COc1cc([C@@H]2c3cc4c(cc3[C@H](O)[C@H]3COC(=O)[C@H]23)OCO4)cc(OC)c1OC [Podophyllotoxin]
- luciferase readings versus background reading: significantly over the background reading
- Avg Med norm: 2.036 fold
- Avg DMSO Norm: 1.985 fold

Compound: C[C@H]1C[C@H]2[C@@H]3CCC4=CC(=O)C=C[C@]4(C)[C@@]3(Cl)[C@@H](O)C[C@]2(C)[C@@]1(O)C(=O)CO [Beclomethasone, 9alpha-Chloro-16beta-methyl-1,4-pregnadiene-11beta,17alpha,-21triol-3,20-dione]
- luciferase readings versus background reading: significantly over the background reading
- Avg Med norm: 1.861 fold
- Avg DMSO Norm: 1.996 fold

Compound: CC(C)NC[C@H](O)c1ccc(O)c(O)c1.O=C(O)C(O)C(O)C(=O)O [R(−)-Isoproterenol(+)-bitartrate]
- luciferase readings versus background reading: significantly over the background reading
- Avg Med norm: 1.996 fold
- Avg DMSO Norm: 1.943 fold
